Test results from the NIST ThermoML archive (doi:10.1016/j.jct.2006.03.010).

Assay: xn = mol fraction of the nth substance listed
Conditions: 101 kPa, Liquid; for speed of sound: Linear variable-path acoustic interferometer

ClC(Cl)Cl [trichloromethane] + CCO
Conditions | mass density, 298.15 K [kg/m3] | mass density, 308.15 K [kg/m3] | speed of sound, 298.15 K [m/s] | speed of sound, 308.15 K [m/s] | viscosity, 298.15 K [mPa·s] | viscosity, 308.15 K [mPa·s]
x1 = 0.0522 | 834.86 | 824.87 | 1129 | 1092 | 1.085 | 0.902
x1 = 0.1007 | 879.76 | 868.7 | 1114 | 1076 | 1.07 | 0.89
x1 = 0.1468 | 920.98 | 909.11 | 1101 | 1062 | 1.043 | 0.869
x1 = 0.2014 | 968.01 | 955.3 | 1085 | 1046 | 1.003 | 0.836
x1 = 0.2505 | 1008.24 | 994.85 | 1071 | 1034 | 0.956 | 0.803
x1 = 0.3005 | 1047.8 | 1033.7 | 1057 | 1022 | 0.901 | 0.764
x1 = 0.3491 | 1084.58 | 1069.92 | 1045 | 1011 | 0.86 | 0.732
x1 = 0.3999 | 1121.8 | 1106.5 | 1033 | 1000 | 0.809 | 0.696
x1 = 0.4505 | 1157.08 | 1141.59 | 1021 | 991 | 0.767 | 0.665
x1 = 0.5045 | 1193.09 | 1177.49 | 1011 | 982 | 0.73 | 0.64
x1 = 0.5509 | 1223.51 | 1207.46 | 1003 | 975 | 0.694 | 0.613
x1 = 0.6007 | 1254.55 | 1238.37 | 996 | 967 | 0.668 | 0.596
x1 = 0.6492 | 1284.3 | 1267.81 | 990 | 962 | 0.644 | 0.58
x1 = 0.7008 | 1314.71 | 1297.8 | 985 | 957 | 0.629 | 0.569
x1 = 0.7496 | 1342.79 | 1325.84 | 982 | 953 | 0.615 | 0.562
x1 = 0.8059 | 1374.26 | 1357.1 | 981 | 950 | 0.601 | 0.551
x1 = 0.8544 | 1400.99 | 1383.35 | 980 | 949 | 0.596 | 0.549
x1 = 0.8994 | 1425.35 | 1407.35 | 981 | 949 | 0.588 | 0.544
x1 = 0.9498 | 1452.14 | 1433.5 | 983 | 948 | 0.576 | 0.531
x1 = 1 | 1478.82 | 1459.45 | 985 | 950 | 0.556 | 0.513
